Measurements reported in patent US20260263638A1, “COMPOSITIONS AND METHODS TO IMPROVE RNA PROPERTIES USING BASE, PHOSPHODIESTER LINKAGE, SUGAR BACKBONE, AND CAP MODIFICATIONS” (The Broad Institute, Inc., priority 2023, published 2026).
Strand notation (5' to 3'): a small letter for the sugar, then the base; units joined by * are phosphorothioate-linked, units joined directly phosphodiester-linked; [ ] holds rarer units or linkages, { } end groups; capitals alone tell only the bases. {m7G} = 7-methylguanosine cap nucleotide; l = locked nucleic acid (LNA); m = 2'-O-methyl; r = 2'-OH (RNA); {P} = phosphate

How the values were obtained:
[1] = target: T1, human decapping enzyme 2 (hDcp2) (Homo sapiens, UniProt Q8IU60); test: hDcp2 decapping assay; format: biochemical; details: 23-nt capped oligos; for Susceptibility / resistance to hDcp2 decapping: result in words
T1 construct: purchased Enzymax LLC 86
Experimental: Next, the influence of modifications on decapping activity was examined. To this end, 23-nucleotide (23-nt) oligonucleotides with various modification patterns were subjected to decapping reactions and analyzed at different time intervals (FIGS. 14E and 9I).
500 ng of capped oligos were incubated in 75 μL decapping reaction buffer (10 mM Tris-HCl (pH 7.5), 100 mM NaCl, 2 mM MgCl2, 1 mM DTT, 2 mM MnCl2, 1:25 SUPERaseIn (v/v)) with 300 ng of hDcp2 [Enzymax LLC, 86] at 37° C. At indicated time points, 5 μL of reaction mixture was aliquoted out into 10 μL of denaturing gel-loading buffer [NEB, B0363S, with urea added to a final concentration of 5 M] and cooled to −20° C. until all time points were collected. The fractions were analyzed by PAGE using Novex 15% TBE-Urea gel [Invitrogen, EC6885BOX] by running at 100 V for 2 hours and stained by 1×SYBR Gold [ThermoFisher Scientific, S11494], and visualized using BioRad ChemiDoc MP Imaging System [12003154]. Band intensities were quantified using ImageJ.

eIF4E [2] = target: T2, eIF4E (Homo sapiens, UniProt P06730); test: eIF4E electrophoretic mobility shift assay (EMSA); format: binding; details: AF647-labeled capped oligos, read-out: eIF4E dissociation constant (Kd)
T2 construct: His; purchased Cayman Chemical Inc 25150
T2 sequence (P06730 whole entry): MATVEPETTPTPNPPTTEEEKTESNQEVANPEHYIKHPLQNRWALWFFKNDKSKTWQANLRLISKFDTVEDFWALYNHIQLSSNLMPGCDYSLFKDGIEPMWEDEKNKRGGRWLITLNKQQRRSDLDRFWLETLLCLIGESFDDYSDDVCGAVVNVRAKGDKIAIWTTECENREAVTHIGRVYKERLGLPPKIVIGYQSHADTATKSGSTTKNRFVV
Experimental: (§1) eIF4E affinity to fluorophore-labeled capped RNA oligonucleotides was quantified through electrophoretic mobility shift assay (EMSA) (FIGS. 14D and 9A-9E).
(§2) Capped oligonucleotides were labeled on the 3′ end using AF647 labeled cytidine-5′-phosphate-3′-(6-aminohexyl) phosphate [Jena Bioscience, NU-1706-AF647] and T4 RNA ligase ligated AF647-labeled cytidine onto the capped oligos using manufacturer's protocols. Oligos were then incubated in the binding buffer (1 mM DTT, 50 mM KCl, 10 mM Tris-HCl (pH 7.6), Novex Hi-Density TBE Sample Buffer [Invitrogen, LC6678]) with varying eIF4E-His [Cayman Chemical Inc, 25150] concentrations prepared by sequential dilutions from the stock solution. The oligos and […] were incubated at 4° C. for 30 mins and characterized by EMSA with Novex TBE Gels, 4-20% [Invitrogen, EC6225BOX] at 4° C. AF647 labeled oligos were imaged with BioRad ChemiDoc MP Imaging System [12003154] and band intensities were quantified using ImageJ. For Kd calculation, the proportions of bound were plotted against eIF4E concentration using GraphPad Prism (Specific binding with Hill slope).

HeLa cells [3] = test: Time-course dual luciferase assay of modified Firefly luciferase mRNA (Renilla control); format: cell-based; details: HeLa cells; 8-, 24-, 48-hours post-transfection; benchmark m7G-rG
Experimental: The modularity of this workflow enabled divergent construction and evaluation of mRNAs featuring four different types of cap and 5′ UTR modifications (FIG. 8A): (1) base identities within the 5′ UTR, including as locations beyond the third base (+3 position), (2) phosphodiester linkages within the 5′ UTR, (3) sugar backbone modifications within the 5′ UTR, and (4) cap modifications. The effects of all of these different types of modifications on protein translation were assayed using Firefly luciferase reporter at 8-, 24-, and 48-hours post-transfection.
HeLa cells [ATCC, CCL-2] were maintained in DMEM culture media [ThermoFisher Scientific, 119951] containing 10% FBS and 1% penicillin-streptomycin [ThermoFisher Scientific, 15070063] in a 37° C. incubator with 5% CO2 and passaged at a ratio of 1:10 every 3 days. On the day before mRNA transfection, HeLa cells were seeded at 90% confluence in individual wells on 24-well plates. The following day, 50 ng of Renilla luciferase (internal control) mRNA and 50 ng of modified Firefly luciferase mRNA were transfected using Lipofectamine MessengerMAX Transfection Reagent [ThermoFisher Scientific, LMRNA003] per manufacturer's protocols. Additional controls that contain only Renilla luciferase mRNA or lipofection reagent only were included. Three individual transfections were conducted for each condition. 6 hours after transfection, the transfection media was removed, and cells were trypsinized and reseeded to three white clear-bottom 96-well plates [Corning, 3610] in phenol-red-free media. At 8-, 24-, and 48-hours post-transfection, cell culture media was removed and cells were rinsed with DPBS. Cells were lysed and luciferase activity was measured using the Promega Dual Glo Luciferase Assay System [Promega, E2920]. Firefly luminescence/Renilla luminescence for each well was used as mRNA activity readout. In cases where Nluc and Fluc were used, the protocol was conducted similarly using the Nano-Glo Dual-Luciferase Reporter Assay System [Promega, N1610].

HeLa cells [4] = test: NLuc bioluminometry of circRNA/QRNA (Fluc transfection control); format: cell-based; details: capped oligo:circRNA up to 80:1 molar ratio
Experimental: Synthetic linear mRNA encoding NanoLuciferase (NLuc) was prepared from DNA template by IVT with 100% m1ψ substitution. The triphosphorylated mRNA after IVT was then treated with Calf Intestinal Alkaline Phosphatase (CIAP) to yield 5′/3′-hydroxyl mRNA. A chemically synthesized oligonucleotide with a branched m7G cap and 5′/3′-phosphates was then ligated to the 5′/3′-hydroxyl mRNA by T4 RNA ligase, which ligates the 5′-phosphate on the oligo and 3′-hydroxyl of the mRNA. The ligation product was then further treated with RtcB ligase, which ligates the 5′-hydroxyl and 3′-phosphate ends to enable intramolecular circularization. […] Using one primer only produced no fragmentation but only linearization, confirming successful circularization. Using double primers produced fragments flanking the branched region, where branched topology was confirmed by gel shift. […] NLuc bioluminometry was measured 8 hrs post transfection and normalized Firefly luciferase as transfection control. Mean±s.e.m., n=3. P values were calculated by ordinary one-way ANOVA (alpha=0.05), with multiple comparisons to circ-NLuc with only 5-octadiynyl deoxyuridine (OU) handle (construct 45). ****P<0.0001, n.s. P>0.05. […] QRNA with m7G (construct 48) was compared. n=3, biological replicates. Mean±sem. P values were calculated by ordinary one-way ANOVA with multiple comparisons against construct 61 without any cotransfected capped oligos (Dunnett's multiple comparison test). […] P values were calculated by unpaired two-sided t-test.
HeLa cells [ATCC, CCL-2] were maintained in DMEM culture media [ThermoFisher Scientific, 119951] containing 10% FBS and 1% penicillin-streptomycin [ThermoFisher Scientific, 15070063] in a 37° C. incubator with 5% CO2 and passaged at a ratio of 1:10 every 3 days. […] Cells were lysed and luciferase activity was measured using the Promega Dual Glo Luciferase Assay System [Promega, E2920]. Firefly luminescence/Renilla luminescence for each well was used as mRNA activity readout. […]

reticulocytes = test: Plasma reticulocyte counting by flow cytometry; format: in vivo; details: mice
Experimental: (§3) mRNA diluted in 50 mM citrate buffer (pH 4) and lipid mix (37.5 mM in ethanol) containing 50 mol % SM-102, 10 mol % DSPC, 38.5 mol % Cholesterol, and 1.5 mol % DMG-PEG2000 were assembled into LNP using a NanoAssemblr Spark instrument [Precision Nanosystems]. Upon formulation, mRNA-LNPs were diluted in 12 mL 1×PBS solution and the buffer was exchanged by concentrating with a 30 kDa spin filter [MilliporeSigma, UFC901008] to remove residue ethanol. Concentrations and encapsulation efficiency of mRNA were determined using Quant-it RiboGreen RNA Assay Kit [ThermoFisher, R11490]. 1 μg NanoLuc or hEPO mRNA-LNP in a total volume of 100 μL was injected through retro orbital injection into each mouse. Four mice were used for each condition of each experiment (NanoLuc imaging, hEPO ELISA, and reticulocyte counting). For NanoLuc imaging, PBS injection was used as negative control. For hEPO/reticulocyte experiments, poly(C)-LNP complex was used as negative control.
10 μL […] sample was added into 1 mL of the Reticulocyte Reagent [BD Bioscience] at the indicated time points and the mixture was incubated at room temperature for 30 minutes with protection from light. The samples were analyzed with Beckman CytoFLEX LX Flow Cytometer with 100,000-event records for each sample. Thiazole orange positive cells are defined as reticulocytes.

[5] = Quantification of plasma hEPO by ELISA after mRNA-LNP injection; format: in vivo; details: mice; hEPO mRNA-LNP retro-orbital; 6 hours
Experimental: All animal procedures followed animal care guidelines approved by the Institutional Animal Care and Use Committee (IACUC) of the Broad Institute of MIT and Harvard under animal protocol #0255-08-19. Animal experiments were conducted in compliance with IACUC policies and NIH guidelines. The BALB/cj (male, 6~8 weeks old) mice used for in vivo NanoLuc assay in this study were purchased from The Jackson Laboratory (JAX). The C57BL/6 mice (female, 7 weeks old), used for hEPO assay in this study were purchased from The Jackson Laboratory (JAX).
as §3
At the indicated time points, approximately 100 μL of blood was collected with EDTA-coated capillary tubes from each mouse and then transferred to an EDTA-coated tube. The collected blood samples were centrifuged at 2000 g for 10 min, followed by transferring the resulting plasma into another tube. The hEPO levels in the plasma samples were measured by Human Erythropoietin (EPO) ELISA kit [LEGEND MAX, 442907]. Final concentrations for hEPO were adjusted based on the volume and dilution fold.

eIF4E [6] = target: eIF4E (UniProt P06730 P06730:1-217); test: EMSA; 50 mM KCl, 10 mM Tris-HCl pH 7.6, 1 mM DTT, 4 C; details: tags: His tag; Cayman Chemical 25150; label: 3' AF647-cytidine (EMSA)
Chain of eIF4E (UniProt P06730 P06730:1-217) (P06730 whole entry, one chain of several): as the sequence (P06730 whole entry) above
Experimental: as §1, §2

construct 15: m7G cap; /5Phos/mAmGmAmGmAmArUrArArArArA (SEQ ID NO: 16) ({P}-mAmGmAmGmAmArUrArArArArA; m7G cap on the 5'-phosphate)
Susceptibility / resistance to hDcp2 decapping ([1]; listed as 2′OMe at first 6 bases): increased decapping resistance to a similar level as LNA modification
Susceptibility / resistance to hDcp2 decapping ([1]; listed as 2′OMe within the first 6 bases): increased decapping resistance
Kd (eIF4E [2]): 2450 ± 140 nM
Protein expression (Firefly luciferase luminescence normalized to Renilla, then to m7G-rG), fold increase (HeLa cells [3]): 6.9 fold

construct 61: m1ψ NLuc circRNA with 20-nt insert, annealed non-covalently to m7G-capped complementary oligo (SEQ ID NO: 116, 177) (chain 1 AAAAACUUACCAAGCGAAGAACAGAAAAA; chain 2 GUCUGUUCUUCGCUUGGUAAG; m1ψ; circRNA; m7G-capped complementary oligo annealed; modified_base 1 OTHER; 5'-phosphate modified nucleotide; modified_base 29 OTHER; 3'-phosphate modified nucleotide; 5'-phosphate modified 7-methylguanosine)
Enhancement of NLuc protein production by non-covalent complementary capped oligo (HeLa cells [4]): up to 5 fold

construct S21: hEPO mRNA with m7G-rG cap, in LNP (SEQ ID NO: 138) (GGAGAAUAAAAA; RNA, 5' {m7G}, backbone not given here; capped 5' oligo ligated to hEPO mRNA, formulated in LNP) [reference compound]
Effect on reticulocyte counts, result in words (reticulocytes; day 6, vs poly(C)-LNP): non-significant
Reticulocytes, % of total red blood cells (reticulocytes; day 6 post-administration): 4±0.3%
Peak plasma hEPO expression [5]: 733±123 mlU/mL

construct 22: LNAm7G cap; /5Phos/+ArGrArGrArArUrArArArArA (SEQ ID NO: 23) ({P}-lArGrArGrArArUrArArArArA; LNA-modified m7G cap on the 5'-phosphate)
Capped transcripts remaining after hDcp2 decapping ([1]; after 60 minutes): 71%~73
Kd (eIF4E [2]): 1420 ± 126 nM
Protein expression (Firefly luciferase luminescence normalized to Renilla, then to m7G-rG), fold increase (HeLa cells [3]): 8.6 fold

AGAGAAUAAAAA (ssRNA, 5' m7G cap with LNA sugar; 2'-OMe at positions 1-6) [LNAm7G-2OMex6 (24)]
Kd (eIF4E [6]): 1570 nM

AGAGAAUAAAAA (ssRNA, 5' m7G cap with LNA sugar; LNA at position 1) [LNAm7G-LNA (22)]
Kd (eIF4E [6]): 1420 nM

AGAGAAUAAAAA (ssRNA, 5' m7G cap; 2'-OMe at positions 1-6) [m7G-6x2OMe (15)]
Kd (eIF4E [6]): 2450 nM
